Results on six molecules are retold here after patent US20110086759A1, “CHEMICAL COMPOUNDS” (SYNGENTA CROP PROTECTION, INC., priority 2007, published 2011).

Assay type in all cases: in vivo
In test [1] the test system is Solanum nigrum (SOLNI). As to the kind of experiment: Pre-emergence biological efficacy, glasshouse pot test. As to conditions: 312 h. The procedure: (§1) Seeds of Alopecurus myosuroides (ALOMY), Setaria faberi (SETFA), Echinochloa crus-galli (ECHCG), Solanum nigrum (SOLNI), Amaranthus retoflexus (AMARE) and Ipomea hederaceae (IPOHE) were sown in standard soil in pots. After cultivation for one day under controlled conditions in a glasshouse (at 24/16° C., day/night; 14 hours light; 65% humidity), the plants were sprayed with an aqueous spray solution derived from the formulation of the technical active ingredient in acetone/water (50:50) solution containing 0.5% Tween 20 (polyoxyethelyene sorbitan monolaurate, CAS RN 9005-64-5) to give a final dose of 1000 or 250 g/ha of test compound.
(§2) The test plants were then grown under controlled conditions in the glasshouse (at 24/16° C., day/night; 14 hours light; 65% humidity) and watered twice daily. After 13 days the test was evaluated (100=total damage to plant; 0=no damage to plant).

Test [2] concerns Setaria faberi (SETFA). The test is described as above. As to conditions: 312 h. The procedure:
as §1, §2

Test [3] has as its system Echinochloa crus-galli (ECHCG). Described as above. As to conditions: 312 h. The procedure: as §1, §2
Test [4] relates to Ipomea hederaceae (IPOHE). The description is as above. As to conditions: Ipomoea hederacea, 312 h. The procedure: as §1, §2
For test [5], the system named is Alopecurus myosuroides (ALOMY). The description is as above. As to conditions: 312 h. The procedure:
as §1, §2

The subject of test [6] is Amaranthus retoflexus (AMARE). The description is as above. As to conditions: Amaranthus retroflexus, 312 h. The procedure:
as §1, §2

Test [7] deals with Solanum nigrum (SOLNI). As to the kind of experiment: Post-emergence biological efficacy, glasshouse pot test. As to conditions: 312 h. The procedure: as §1, with “8 days” for “one day”
(§3) The test plants were then grown on under controlled conditions in a glasshouse (at 24/16° C., day/night; 14 hours light; 65% humidity) and watered twice daily. After 13 days the test was evaluated (100=total damage to plant; 0=no damage to plant).

Test [8] deals with Setaria faberi (SETFA). Described as above. As to conditions: 312 h. The procedure:
as §1, with “8 days” for “one day”
as §3

Test [9] relates to Echinochloa crus-galli (ECHCG). The description is as above. As to conditions: 312 h. The procedure:
as §1, with “8 days” for “one day”
as §3

The test system of test [10] is Ipomea hederaceae (IPOHE). The test is described as above. As to conditions: Ipomoea hederacea, 312 h. The procedure: as §1, with “8 days” for “one day”
as §3

For test [11], the system named is Alopecurus myosuroides (ALOMY). The description is as above. As to conditions: 312 h. The procedure: as §1, with “8 days” for “one day”
as §3

For test [12], the system named is Amaranthus retoflexus (AMARE). The description is as above. As to conditions: Amaranthus retroflexus, 312 h. The procedure:
as §1, with “8 days” for “one day”
as §3

Setting [13] is: pre-emergence, rate 1,000 g/ha, evaluated after 13 days (100=total damage to plant; 0=no damage), read-out: Percentage damage caused to weed species, SETFA.
[14] abbreviates: pre-emergence, rate 1,000 g/ha, evaluated after 13 days (100=total damage to plant; 0=no damage), read-out: Percentage damage caused to weed species, ECHCG.
Where [15] appears, read: pre-emergence, rate 1,000 g/ha, evaluated after 13 days (100=total damage to plant; 0=no damage), read-out: Percentage damage caused to weed species, IPOHE.
The mark [16] stands for this setting: pre-emergence, rate 1,000 g/ha, evaluated after 13 days (100=total damage to plant; 0=no damage), read-out: Percentage damage caused to weed species, ALOMY.
Where [17] appears, read: Rate 1,000 g/ha, post-emergence spray, evaluated after 13 days (100=total damage to plant; 0=no damage to plant), read-out: Percentage damage caused to weed species, post-emergence, SOLNI.
The mark [18] stands for this setting: Rate 1,000 g/ha, post-emergence spray, evaluated after 13 days (100=total damage to plant; 0=no damage to plant), read-out: Percentage damage caused to weed species, post-emergence, SETFA.
[19] abbreviates: Rate 1,000 g/ha, post-emergence spray, evaluated after 13 days (100=total damage to plant; 0=no damage to plant), read-out: Percentage damage caused to weed species, post-emergence, ECHCG.
Where [20] appears, read: Rate 1,000 g/ha, post-emergence spray, evaluated after 13 days (100=total damage to plant; 0=no damage to plant), read-out: Percentage damage caused to weed species, post-emergence, IPOHE.
Where [21] appears, read: Rate 1,000 g/ha, post-emergence spray, evaluated after 13 days (100=total damage to plant; 0=no damage to plant), read-out: Percentage damage caused to weed species, post-emergence, ALOMY.
[22] abbreviates: Rate 1,000 g/ha, post-emergence spray, evaluated after 13 days (100=total damage to plant; 0=no damage to plant), read-out: Percentage damage caused to weed species, post-emergence, AMARE.
Where [23] appears, read: pre-emergence, 1,000 g/ha, evaluated after 13 days (100=total damage; 0=no damage), read-out: Percentage damage SOLNI.
The mark [24] stands for this setting: pre-emergence, 1,000 g/ha, evaluated after 13 days (100=total damage; 0=no damage), read-out: Percentage damage SETFA.
Where [25] appears, read: pre-emergence, 1,000 g/ha, evaluated after 13 days (100=total damage; 0=no damage), read-out: Percentage damage ECHCG.
Where [26] appears, read: pre-emergence, 1,000 g/ha, evaluated after 13 days (100=total damage; 0=no damage), read-out: Percentage damage IPOHE.
Where [27] appears, read: pre-emergence, 1,000 g/ha, evaluated after 13 days (100=total damage; 0=no damage), read-out: Percentage damage ALOMY.
[28] abbreviates: pre-emergence, 1,000 g/ha, evaluated after 13 days (100=total damage; 0=no damage), read-out: Percentage damage AMARE.
Setting [29] is: post-emergence, 1,000 g/ha, evaluated after 13 days (100=total damage; 0=no damage), read-out: Percentage damage caused to weed species, SOLNI.
[30] abbreviates: post-emergence, 1,000 g/ha, evaluated after 13 days (100=total damage; 0=no damage), read-out: Percentage damage caused to weed species, SETFA.
Setting [31] is: post-emergence, 1,000 g/ha, evaluated after 13 days (100=total damage; 0=no damage), read-out: Percentage damage caused to weed species, ECHCG.
The mark [32] stands for this setting: post-emergence, 1,000 g/ha, evaluated after 13 days (100=total damage; 0=no damage), read-out: Percentage damage caused to weed species, IPOHE.
Setting [33] is: post-emergence, 1,000 g/ha, evaluated after 13 days (100=total damage; 0=no damage), read-out: Percentage damage caused to weed species, ALOMY.
Setting [34] is: post-emergence, 1,000 g/ha, evaluated after 13 days (100=total damage; 0=no damage), read-out: Percentage damage caused to weed species, AMARE.

`COC(=O)c1nc(C2CC2)nc(N(C/C=C/c2ccccc2OC)C(C)C)c1Cl` [Compound 146-255, 5-Chloro-2-cyclopropyl-4-{N-isopropyl-N-[3-(2-methoxyphenyl)-prop-2-enyl]-amino}-6-methoxycarbonyl-pyrimidine]: the pest or weed control at 1000 g/ha came out at 10% with Solanum nigrum (SOLNI) [1] (pre-emergence, rate 1,000 g/ha, evaluated after 13 days (100=total damage to plant; 0=no damage), read-out: Percentage damage caused to weed species, SOLNI); 20% in the test on Setaria faberi (SETFA) [2] (setting [13]); 10% in test [3] (setting [14]); 70% in test [4] (setting [15]); 10% in test [5] (setting [16]); 100% in test [6] (pre-emergence, rate 1,000 g/ha, evaluated after 13 days (100=total damage to plant; 0=no damage), read-out: Percentage damage caused to weed species, AMARE). For the same molecule, the pest or weed control at 1000 g/ha turned out to be 80% with Solanum nigrum (SOLNI) [7] (setting [17]); 80% with Setaria faberi (SETFA) [8] (setting [18]); 30% in [9] (setting [19]); 100% in test [10] (setting [20]); 20% in test [11] (setting [21]); 100% in [12] (setting [22]).

On to `COC(=O)c1nc(C2CC2)nc(NCC(F)c2ccc(Cl)cc2Cl)c1Cl` (stereo not shown) [Compound 4-239, 5-Chloro-2-cyclopropyl-4-[2-(2,4-dichlorophenyl)-2-fluoro-ethylamino]-6-methoxycarbonyl-pyrimidine], for which the pest or weed control at 1000 g/ha with Solanum nigrum (SOLNI) [1] (setting [23]) worked out at 0%; in the test on Setaria faberi (SETFA) [2] (setting [24]), 0%; in test [3] (setting [25]) it was 0%; in test [4] (setting [26]) it was 10%; in [5] (setting [27]), 0%; in test [6] (setting [28]), 20%. Further, the pest or weed control at 1000 g/ha in the test with Solanum nigrum (SOLNI) [7] (setting [29]) amounted to 60%; in the test with Setaria faberi (SETFA) [8] (setting [30]), 20%; in [9] (setting [31]) it was 0%; in test [10] (setting [32]), 50%; in test [11] (setting [33]) it was 0%; in test [12] (setting [34]), 90%.

In the case of `C=CC(Nc1nc(C2CC2)nc(C(=O)OC)c1Cl)c1ccccc1` (stereo not shown) [Compound 4-197, 5-Chloro-2-cyclopropyl-6-methoxycarbonyl-4-(1-phenylprop-2-en-1-yl-amino)-pyrimidine], the pest or weed control at 1000 g/ha with Solanum nigrum (SOLNI) [1] (setting [23]) came to 90%; in the test on Setaria faberi (SETFA) [2] (setting [24]), 20%; in test [3] (setting [25]), 40%; in test [4] (setting [26]), 100%; in test [5] (setting [27]) it was 20%; in test [6] (setting [28]), 90%. Moreover, the pest or weed control at 1000 g/ha is 90% with Solanum nigrum (SOLNI) [7] (setting [29]); 80% with Setaria faberi (SETFA) [8] (setting [30]); 70% in test [9] (setting [31]); 100% in test [10] (setting [32]); 40% in test [11] (setting [33]); 100% in test [12] (setting [34]).

In the case of `COC(=O)c1nc(-c2ccc(OC)c(F)c2)nc(NCc2ccco2)c1Cl` [Compound 253-48, 5-Chloro-2-(3-fluoro-4-methoxyphenyl)-4-(furan-2-yl-methyl-amino)-6-methoxy-carbonylpyrimidine], the pest or weed control at 1000 g/ha turned out to be 0% with Setaria faberi (SETFA) [2] (setting [13]); 0% in test [3] (setting [14]); 0% in test [4] (setting [15]); 0% in test [5] (setting [16]); 40% with Solanum nigrum (SOLNI) [7] (setting [17]); 0% in the test on Setaria faberi (SETFA) [8] (setting [18]). Moreover, the pest or weed control at 1000 g/ha in [9] (setting [19]) came out at 0%; in test [10] (setting [20]), 20%; in test [11] (setting [21]) it was 0%; in test [12] (setting [22]), 70%.

For `COC(=O)c1nc(C2CC2)nc(NCC(F)c2cccc(Br)c2)c1Cl` (stereo not shown) [Compound 4-235, 4-[2-(3-Bromophenyl)-2-fluoro-ethylamino]-5-chloro-2-cyclopropyl-6-methoxycarbonyl-pyrimidine], the pest or weed control at 1000 g/ha in the test with Setaria faberi (SETFA) [2] (setting [24]) came to 0%; in test [3] (setting [25]), 0%; in test [4] (setting [26]), 0%; in test [5] (setting [27]) it was 0%; in the test on Solanum nigrum (SOLNI) [7] (setting [29]) it was 60%; in the test with Setaria faberi (SETFA) [8] (setting [30]), 20%. Besides, the pest or weed control at 1000 g/ha in test [9] (setting [31]) was found to be 30%; in [10] (setting [32]), 70%; in test [11] (setting [33]) it was 0%; in [12] (setting [34]), 100%.

As for `COC(=O)c1nc(C2CC2)nc(NCCC2=CCCCC2)c1Cl` [Compound 4-215, 5-Chloro-4-[2-(cyclohex-1-enyl)ethylamino]-2-cyclopropyl-6-methoxycarbonyl-pyrimidine], the pest or weed control at 1000 g/ha with Solanum nigrum (SOLNI) [1] (setting [23]) amounted to 90%; in the test with Setaria faberi (SETFA) [2] (setting [24]), 20%; in [3] (setting [25]), 20%; in test [4] (setting [26]) it was 90%; in test [5] (setting [27]) it was 10%; in test [6] (setting [28]), 100%. The pest or weed control at 1000 g/ha in the test on Solanum nigrum (SOLNI) [7] (setting [29]) was 100%; in the test with Setaria faberi (SETFA) [8] (setting [30]), 50%; in test [9] (setting [31]), 30%; in test [10] (setting [32]), 80%; in test [11] (setting [33]) it was 20%.
